Experimental data: publication PMC6332508, “A Promising PET Tracer for Imaging of α7 Nicotinic Acetylcholine Receptors in the Brain: Design, Synthesis, and in Vivo Evaluation of a Dibenzothiophene-Based Radioligand” (Molecules, 2015)
Values joined by “and” are separate entries in the source; they are usually repeats but may differ in a detail not shown here. Identical values can stand only once.

System: α7 nAChR
Test: Dynamic PET studies in piglets with kinetic modelling (2TCM)
Type: in vivo
Settings: for BPND / Rate Constant K1 / Rate Constant k2 / Rate Constant k3 / Rate Constant k4 / VND: piglet brain, 240 min scan data
Procedure: One-tissue and two-tissue compartment models (1TCM and 2TCM) were evaluated for mathematical description of [^18F]10a time-activity curves (TACs) in pig brain regions (Figure 3) using metabolite-corrected arterial plasma input functions. The 2TCM was identified as the more appropriate model based on its smaller Akaike information criterion (AIC) value. The four rate constants K1, k2, k3, and k4 were fitted and the non-displaceable volume of distribution (VND = K1/k2) and the binding potential (BPND = k3/k4) as defined by Innis et al. were calculated for each region of interest (Table 3 and Table 4).
Six female animals were used in this study with anesthesia and surgery performed as described previously. In brief, the animals received initially a premedication with midazolam (1 mg∙kg^−1 i.m.) followed by induction of anesthesia with 3% isoflurane in 70% N2O/30% O2. All incision sites were infiltrated with 1% lidocaine, and the anesthesia was maintained with 1.5% isoflurane throughout the surgical procedure. A central venous catheter was introduced through the left external jugular vein and used for the administration of the radiotracer and drugs, and for volume substitution with heparinized (50 IE∙mL^−1) lactated Ringer’s solution (2 mL∙kg^−1∙h^−1). An endotracheal tube was inserted by tracheotomy for artificial ventilation (Servo Ventilator 900C, Siemens-Elema, Solna, Sweden) after immobilization with pancuronium bromide (0.2 mg∙kg^−1∙h^−1). The artificial ventilation was adjusted to obtain normoxia and normocapnia (Radiometer ABL 500, Copenhagen, Denmark). Polyurethane catheters (i.d., 0.5 mm) were advanced through the left and the right femoral arteries into the abdominal aorta to withdraw arterial blood samples for regular monitoring of blood gases and for radiotracer input function measurements and metabolite analyses. The body temperature was monitored by a rectal temperature probe and maintained at ~38 °C by a heating pad. After the surgical procedure has been completed, anesthesia was maintained with 0.5% isoflurane in 70% N2O/30% O2, and the animals were allowed to stabilize for 1 h before imaging procedure.
PET imaging was performed according to the protocol described recently. In brief, a clinical tomograph (ECAT Exact HR+; Siemens Healthcare GmbH, Erlangen, Germany) was used with animals lying prone with the head placed in a custom-made head holder. For attenuation and scatter correction, transmission scans were acquired using three rotating ^68Ge rod sources. The radiotracer was injected as an intravenous (i.v.) bolus (10 mL saline with 340–494 MBq [^18F]10a) by a syringe pump within 2 min followed by flushing with 10 mL heparinized saline (50 IE∙mL^−1). PET scanning started at the time of injection (0 min) and dynamic emission data were acquired for a total of 240 min. Three animals were investigated under baseline conditions, and another three under blocking conditions with administration of 3 mg∙kg^−1 i.v. of the α7 nAChR partial agonist NS6740 at 3 min before radiotracer injection followed by a continuous infusion throughout the scan (1 mg∙kg^−1∙h^−1).
Arterial blood was sampled using a peristaltic pump during the first 20 min of the scan followed by manual sampling at 25, 30, 40, 50, 60, 90, 120, 150, 180, 210, and 240 min after injection. Plasma was obtained by centrifugation (13,000 rpm, 2 min at 21 °C) and total radioactivity concentration was measured using a gamma-counter (1470 Wizard; PerkinElmer, Shelton, CT, USA) cross-calibrated to the PET scanner. In addition, arterial whole blood was sampled manually at 4, 16, 30, 60, and 120 min p.i. and plasma obtained for metabolite analyses to determine the fraction of non-metabolized [^18F]10a.
The plasma input function was corrected for the presence of radioactive metabolites by determination of the parent fraction as described previously. […]

[1] = Cerebellum, blocking (NS6740), n = 3
[2] = Colliculi, blocking (NS6740), n = 3
[3] = Frontal Cortex, baseline, n = 3
[4] = Frontal Cortex, blocking (NS6740), n = 3
[5] = Hippocampus, blocking (NS6740), n = 3
[6] = Midbrain, blocking (NS6740), n = 3
[7] = Occipital Cortex, baseline, n = 3

O=S1(=O)c2ccc([18F])cc2-c2ccc(N3CCN4CCC3CC4)cc21 [[^18F]10a] was tested, and the “increase of VND under blocking conditions” value (NS6740 vs baseline) was “up to 4 fold”, the “time of peak concentrations of radioactivity in the brain” value (baseline, i.v., n = 3) was 8–10 min p.i and the SUVmax (baseline, other brain regions) was 1.9–2.1. For the same compound, the SUVmax (baseline, thalamus, colliculi, and midbrain) was > 2.2, the BPND (Cerebellum, baseline, n = 3) was 2.5 and 2.53 ± 0.57 and the “Rate Constant K1” value (Cerebellum, baseline, n = 3) was 0.421 ± 0.048 mL·cm^−3·min^−1. The “Rate Constant k2” value (Cerebellum, baseline, n = 3) was 0.131 ± 0.052 min⁻¹, the “Rate Constant k3” value (Cerebellum, baseline, n = 3) was 0.067 ± 0.051 min⁻¹ and the “Rate Constant k4” value (Cerebellum, baseline, n = 3) was 0.026 ± 0.020 min⁻¹. For the same compound, the VND (Cerebellum, baseline, n = 3) was 3.62 ± 1.47, the BPND [1] was 0.71 ± 1.10 and the “Rate Constant K1” value [1] was 0.711 ± 0.148 mL·cm^−3·min^−1. The “Rate Constant k2” value [1] was 0.076 ± 0.014 min⁻¹, the “Rate Constant k3” value [1] was 0.016 ± 0.019 min⁻¹ and the “Rate Constant k4” value [1] was 0.011 ± 0.016 min⁻¹. The VND [1] was 9.75 ± 3.57, the BPND (Colliculi, baseline, n = 3) was 2.68 ± 1.42 and the “Rate Constant K1” value (Colliculi, baseline, n = 3) was 0.450 ± 0.072 mL·cm^−3·min^−1. The “Rate Constant k2” value (Colliculi, baseline, n = 3) was 0.134 ± 0.074 min⁻¹, the “Rate Constant k3” value (Colliculi, baseline, n = 3) was 0.070 ± 0.042 min⁻¹ and the “Rate Constant k4” value (Colliculi, baseline, n = 3) was 0.027 ± 0.018 min⁻¹. The VND (Colliculi, baseline, n = 3) was 4.19 ± 2.37, the BPND [2] was 0.73 ± 0.74 and the “Rate Constant K1” value [2] was 0.735 ± 0.182 mL·cm^−3·min^−1. The “Rate Constant k2” value [2] was 0.066 ± 0.007 min⁻¹, the “Rate Constant k3” value [2] was 0.011 ± 0.013 min⁻¹ and the “Rate Constant k4” value [2] was 0.007 ± 0.015 min⁻¹. For the same compound, the VND [2] was 11.41 ± 3.90, the BPND [3] was 4.22 ± 2.93 and the “Rate Constant K1” value [3] was 0.387 ± 0.059 mL·cm^−3·min^−1. For the same compound, the “Rate Constant k2” value [3] was 0.182 ± 0.153 min⁻¹, the “Rate Constant k3” value [3] was 0.142 ± 0.165 min⁻¹ and the “Rate Constant k4” value [3] was 0.027 ± 0.015 min⁻¹. The VND [3] was 3.32 ± 2.06, the BPND [4] was 0.86 ± 0.92 and the “Rate Constant K1” value [4] was 0.647 ± 0.117 mL·cm^−3·min^−1. The “Rate Constant k2” value [4] was 0.055 ± 0.011 min⁻¹, the “Rate Constant k3” value [4] was 0.014 ± 0.019 min⁻¹ and the “Rate Constant k4” value [4] was 0.010 ± 0.020 min⁻¹. For the same compound, the VND [4] was 12.34 ± 4.27, the BPND (Hippocampus, baseline, n = 3) was 5.5 and 5.50 ± 1.01 and the “Rate Constant K1” value (Hippocampus, baseline, n = 3) was 0.400 ± 0.023 mL·cm^−3·min^−1. The “Rate Constant k2” value (Hippocampus, baseline, n = 3) was 0.188 ± 0.083 min⁻¹, the “Rate Constant k3” value (Hippocampus, baseline, n = 3) was 0.145 ± 0.101 min⁻¹ and the “Rate Constant k4” value (Hippocampus, baseline, n = 3) was 0.025 ± 0.013 min⁻¹. The VND (Hippocampus, baseline, n = 3) was 2.43 ± 0.96, the BPND [5] was 0.84 ± 1.70 and the “Rate Constant K1” value [5] was 0.603 ± 0.118 mL·cm^−3·min^−1. For the same compound, the “Rate Constant k2” value [5] was 0.063 ± 0.023 * min^−1, the “Rate Constant k3” value [5] was 0.024 ± 0.030 min⁻¹ and the “Rate Constant k4” value [5] was 0.011 ± 0.015 min⁻¹. For the same compound, the VND [5] was 10.81 ± 5.02, the BPND (Midbrain, baseline, n = 3) was 3.40 ± 1.73 and the “Rate Constant K1” value (Midbrain, baseline, n = 3) was 0.436 ± 0.045 mL·cm^−3·min^−1. For the same compound, the “Rate Constant k2” value (Midbrain, baseline, n = 3) was 0.162 ± 0.117 min⁻¹, the “Rate Constant k3” value (Midbrain, baseline, n = 3) was 0.121 ± 0.132 min⁻¹ and the “Rate Constant k4” value (Midbrain, baseline, n = 3) was 0.029 ± 0.022 min⁻¹. The VND (Midbrain, baseline, n = 3) was 4.04 ± 3.06, the BPND [6] was 0.61 ± 0.77 and the “Rate Constant K1” value [6] was 0.685 ± 0.131 mL·cm^−3·min^−1. For the same compound, the “Rate Constant k2” value [6] was 0.063 ± 0.010 min⁻¹, the “Rate Constant k3” value [6] was 0.013 ± 0.014 min⁻¹ and the “Rate Constant k4” value [6] was 0.012 ± 0.018 min⁻¹. For the same compound, the VND [6] was 11.17 ± 3.64, the BPND [7] was 3.16 ± 1.11 and the “Rate Constant K1” value [7] was 0.395 ± 0.053 mL·cm^−3·min^−1. The “Rate Constant k2” value [7] was 0.123 ± 0.063 min⁻¹, the “Rate Constant k3” value [7] was 0.099 ± 0.087 min⁻¹ and the “Rate Constant k4” value [7] was 0.030 ± 0.023 min⁻¹.
